test system: Beet Armyworm (Spodoptera exigua); assay: Bioassay on Beet Armyworm (BAW), 128-well diet tray assay; assay type: in vivo; details: Spodoptera exigua, 168 h; percent mortality of second instar larvae, 50 μg/cm^2 on artificial diet, five to seven days, 25° C.; read-out: BAW Rating

Row | SMILES | pest or weed control at 50 µg/cm2, 50 µg/cm2
1 | C[C@@H](NC(=O)c1ccc(/C=C/C(c2cc(Cl)c(Cl)c(Cl)c2)C(F)(F)F)cc1C(F)(F)F)C(=O)NCC(F)(F)F (mixture of isomers) [Compound F20] | 50 to 100%
2 | CC(C)(NC(=O)c1ccc(/C=C/C(c2cc(Cl)c(Cl)c(Cl)c2)C(F)(F)F)cc1Cl)C(=O)NCC(F)(F)F (stereo not shown) [Compound F2] | 50 to 100%
3 | Cc1cc(/C=C/C(c2cc(Cl)c(Cl)c(Cl)c2)C(F)(F)F)ccc1C(=O)NC(C)(C)C(=O)NCC(F)(F)F (stereo not shown) [Compound F3] | 50 to 100%
4 | CC(C)(NC(=O)c1ccc(/C=C/C(c2cc(Cl)c(Cl)c(Cl)c2)C(F)(F)F)cc1C(F)(F)F)C(=O)NCC(F)(F)F (stereo not shown) [Compound F4] | 50 to 100%
5 | C[C@H](NC(=O)c1ccc(/C=C/C(c2cc(Cl)c(Cl)c(Cl)c2)C(F)(F)F)cc1Br)C(=O)NCC(F)(F)F (stereo partly shown) [Compound F5] | 50 to 100%

same assay, conditions: Table 3, Assays Results Part 1

Row | SMILES | BAW Rating
6 | O=C(CC(F)(F)F)NCc1ncc(/C=C/C(c2cc(Cl)c(Cl)c(Cl)c2)C(F)(F)F)cc1Cl (stereo not shown) [CC44, (E)-N-((3-Chloro-5-(4,4,4-trifluoro-3-(3,4,5-trichlorophenyl)-but-1-en-1-yl)pyridin-2-yl)methyl)-3,3,3-trifluoropropanamide] | A (50-100)
7 | O=C(NCc1ncc(/C=C/C(c2cc(Cl)c(Cl)c(Cl)c2)C(F)(F)F)cc1Cl)C1CC1 (stereo not shown) [CC45] | A (50-100)
8 | O=C(NNc1ccc(/C=C/C(c2cc(Cl)c(Cl)c(Cl)c2)C(F)(F)F)cc1)C1CC1 (stereo not shown) [CC50, (E)-N′-(4-(4,4,4-Trifluoro-3-(3,4,5-trichlorophenyl)but-1-en-1-yl)phenyl)cyclopropanecarbohydrazide] | A (50-100)
9 | O=C(CC(F)(F)F)NNc1ccc(/C=C/C(c2cc(Cl)c(Cl)c(Cl)c2)C(F)(F)F)cc1 (stereo not shown) [CC51] | A (50-100)
10 | O=C(NOc1ccc(/C=C/C(c2cc(Cl)c(Cl)c(Cl)c2)C(F)(F)F)cc1)C1CC1 (stereo not shown) [CC52, (E)-N-(4-(4,4,4-Trifluoro-3-(3,4,5-trichlorophenyl)but-1-en-1-yl)phenoxy)cyclopropanecarboxamide] | A (50-100)
11 | O=C(CC(F)(F)F)NCc1ccc(/C=C\C(c2cc(Cl)c(Cl)c(Cl)c2)C(F)(F)F)cc1 (stereo not shown) [CC54, (Z)-3,3,3-Trifluoro-N-(4-(4,4,4-trifluoro-3-(3,4,5-trichlorophenyl)but-1-en-1-yl)benzyl)propanamide] | A (50-100)
12 | FC(F)(F)C(/C=C/c1ccc(-n2cncn2)cc1)c1cc(Cl)cc(Cl)c1 (stereo not shown) [DC1, (E)-1-(4-(3-(3,5-Dichlorophenyl)-4,4,4-trifluorobut-1-en-1-yl)phenyl)-1H-1,2,4-triazole] | A (50-100)
13 | FC(F)(F)C(/C=C/c1ccc(-n2cncn2)cc1)c1ccccc1 (stereo not shown) [DC3] | B (More than 0-Less than 50)
14 | FC(F)(F)C(/C=C/c1ccc(-n2cncn2)cc1)c1ccc(Cl)cc1 (stereo not shown) [DC4] | A (50-100)
15 | Fc1ccc(C(/C=C/c2ccc(-n3cncn3)cc2)C(F)(F)F)cc1 (stereo not shown) [DC7] | A (50-100)
16 | Fc1cc(F)cc(C(/C=C/c2ccc(-n3cncn3)cc2)C(F)(F)F)c1 (stereo not shown) [DC8] | A (50-100)
17 | Cc1cc(C)cc(C(/C=C/c2ccc(-n3cncn3)cc2)C(F)(F)F)c1 (stereo not shown) [DC11] | A (50-100)
18 | FC(F)(F)C(/C=C/c1ccc(-n2cncn2)cc1)c1ccc(Cl)c(Cl)c1 (stereo not shown) [DC12] | A (50-100)
19 | FC(F)(F)c1cc(C(/C=C/c2ccc(-n3cncn3)cc2)C(F)(F)F)cc(C(F)(F)F)c1 (stereo not shown) [DC16] | A (50-100)
20 | COc1c(Cl)cc(C(/C=C/c2ccc(-n3cncn3)cc2)C(F)(F)F)cc1Cl (stereo not shown) [DC20] | A (50-100)
21 | N#Cc1cc(/C=C/C(c2cc(Cl)cc(C(F)(F)F)c2)C(F)(F)F)ccc1-n1cncn1 (stereo not shown) [DC33] | A (50-100)
22 | COc1c(Cl)cc(C(/C=C/c2ccc(-n3cncn3)c(C#N)c2)C(F)(F)F)cc1Cl (stereo not shown) [DC34] | A (50-100)
23 | N#Cc1cc(/C=C/C(c2cc(Cl)c(F)c(Cl)c2)C(F)(F)F)ccc1-n1cncn1 (stereo not shown) [DC35] | A (50-100)
24 | N#Cc1cc(/C=C/C(c2cc(Cl)cc(Cl)c2)C(F)(F)F)ccc1-n1cnc([N+](=O)[O-])n1 (stereo not shown) [DC37] | A (50-100)
25 | N#Cc1cc(/C=C/C(c2cc(Cl)cc(Cl)c2)C(F)(F)F)ccc1-n1cnc(N)n1 (stereo not shown) [DC38] | A (50-100)
26 | CC(=O)Nc1ncn(-c2ccc(/C=C/C(c3cc(Cl)cc(Cl)c3)C(F)(F)F)cc2C#N)n1 (stereo not shown) [DC39] | A (50-100)

Row | SMILES | BAW Rating
27 | N#Cc1cc(/C=C/C(c2cc(Cl)c(Cl)c(Cl)c2)C(F)(F)F)ccc1-n1cnc([N+](=O)[O-])n1 (stereo not shown) [DC40, (E)-2-(3-Nitro-1H-1,2,4-triazol-1-yl)-5-(4,4,4-trifluoro-3-(3,4,5-trichlorophenyl)but-1-en-1-yl)benzonitrile] | A (50-100)
28 | N#Cc1cc(/C=C/C(c2cc(Cl)c(Cl)c(Cl)c2)C(F)(F)F)ccc1-n1cnc(N)n1 (stereo not shown) [DC41, (E)-2-(3-Amino-1H-1,2,4-triazol-1-yl)-5-(4,4,4-trifluoro-3-(3,4,5-trichlorophenyl)but-1-en-1-yl)benzonitrile] | A (50-100)
29 | N#Cc1cc(/C=C/C(c2cc(Cl)c(Cl)c(Cl)c2)C(F)(F)F)ccc1-n1cnc(N(C(=O)C2CC2)C(=O)C2CC2)n1 (stereo not shown) [DC42, (E)-N-(1-(2-Cyano-4-(4,4,4-trifluoro-3-(3,4,5-trichlorophenyl)but-1-en-1-yl)phenyl)-1H-1,2,4-triazol-3-yl)-N-(cyclopropanecarbonyl)cyclopropanecarboxamide] | A (50-100)
30 | N#Cc1cc(/C=C/C(c2cc(Cl)c(Cl)c(Cl)c2)C(F)(F)F)ccc1-n1cnc(NC(=O)C2CC2)n1 (stereo not shown) [DC43, (E)-N-(1-(2-Cyano-4-(4,4,4-trifluoro-3-(3,4,5-trichlorophenyl)but-1-en-1-yl)phenyl)-1H-1,2,4-triazol-3-yl)cyclopropanecarboxamide] | A (50-100)
31 | Cc1cc(/C=C/C(c2cc(Cl)cc(Cl)c2)C(F)(F)F)cc(C#N)c1-n1cncn1 (stereo not shown) [DC44] | A (50-100)
32 | Cc1cc(/C=C/C(c2cc(Cl)c(Cl)c(Cl)c2)C(F)(F)F)cc(C#N)c1-n1cncn1 (stereo not shown) [DC45] | A (50-100)
33 | N#Cc1cc(/C=C\C(c2cc(Cl)c(F)c(Cl)c2)C(F)(F)F)ccc1-n1cncn1 (stereo not shown) [DC46] | A (50-100)
34 | FC(F)(F)C(/C=C/c1ccc(-n2cncn2)c(Br)c1)c1cc(Cl)cc(Cl)c1 (stereo not shown) [DC47] | A (50-100)
35 | Fc1cc(/C=C/C(c2cc(Cl)cc(Cl)c2)C(F)(F)F)ccc1-n1cncn1 (stereo not shown) [DC48] | A (50-100)
36 | FC(F)(F)C(/C=C/c1ccc(-n2cncn2)c(Cl)c1)c1cc(Cl)c(Cl)c(Cl)c1 (stereo not shown) [DC49] | A (50-100)
37 | FC(F)(F)C(/C=C/c1ccc(-n2cncn2)c(Cl)c1)c1cc(Cl)cc(Cl)c1 (stereo not shown) [DC50] | A (50-100)
38 | FC(F)(F)c1cc(/C=C/C(c2cc(Cl)cc(Cl)c2)C(F)(F)F)ccc1-n1cncn1 (stereo not shown) [DC51] | A (50-100)
39 | CNc1cc(/C=C/C(c2cc(Cl)cc(Cl)c2)C(F)(F)F)ccc1-n1cncn1 (stereo not shown) [DC57, (E)-5-(3-(3,5-Dichlorophenyl)-4,4,4-trifluorobut-1-en-1-yl)-N-methyl-2-(1H-1,2,4-triazol-1-yl)aniline] | A (50-100)
40 | CCOC(=O)c1cc(/C=C/C(c2cc(Cl)cc(Cl)c2)C(F)(F)F)ccc1-n1cncn1 (stereo not shown) [DC60] | A (50-100)
41 | Cc1cc(/C=C/C(c2cc(Cl)cc(Cl)c2)C(F)(F)F)ccc1-n1cncn1 (stereo not shown) [DC62] | A (50-100)
42 | Cc1cc(/C=C/C(c2cc(Cl)c(Cl)c(Cl)c2)C(F)(F)F)ccc1-n1cncn1 (stereo not shown) [DC63] | A (50-100)
43 | FC(F)(F)C(/C=C/c1ccc(-n2cncn2)cc1Cl)c1cc(Cl)c(Cl)c(Cl)c1 (stereo not shown) [DC66] | A (50-100)
44 | FC(F)(F)C(/C=C/c1ccc(-n2cncn2)cc1Cl)c1cc(Cl)cc(Cl)c1 (stereo not shown) [DC67] | A (50-100)
45 | C/C(=C\C(c1cc(Cl)cc(Cl)c1)C(F)(F)F)c1ccc(-n2cncn2)cc1 (stereo not shown) [DC68, (E)-1-(4-(4-(3,5-Dichlorophenyl)-5,5,5-trifluoropent-2-en-2-yl)phenyl)-1H-1,2,4-triazole] | A (50-100)
46 | COC(/C=C/c1ccc(-n2cncn2)cc1)(c1cc(Cl)cc(Cl)c1)C(F)(F)F (stereo not shown) [DC70, (E)-1-(4-(3-(3,5-Dichlorophenyl)-4,4,4-trifluoro-3-methoxybut-1-en-1-yl)phenyl)-1H-1,2,4-triazole] | A (50-100)

test system: Cabbage Looper (Trichoplusia ni); assay: Bioassay on Cabbage Looper (CL), 128-well diet tray assay; assay type: in vivo; details: 168 h, percent mortality of second instar larvae, 50 μg/cm^2 on artificial diet, five to seven days, 25° C., read-out: CL Rating
Protocol: Certain molecules disclosed in this document were tested against BAW, CEW and CL using procedures described in the following examples. In the reporting of the results, the “BAW & CEW & CL Rating Table” was used (See Table Section).
Bioassays on CL (Trichoplusia ni)
Bioassays on CL were conducted using a 128-well diet tray assay. One to five second instar CL larvae were placed in each well (3 mL) of the diet tray that had been previously filled with 1 mL of artificial diet to which 50 μg/cm^2 of the test compound (dissolved in 50 μL of 90:10 acetone-water mixture) had been applied (to each of eight wells) and then allowed to dry. Trays were covered with a clear self-adhesive cover, and held at 25° C., 14:10 light-dark for five to seven days. Percent mortality was recorded for the larvae in each well; activity in the eight wells was then averaged.
“Table 4: Assay Results Part 2” (See Table Section).

Row | SMILES | pest or weed control at 50 µg/cm2, 50 µg/cm2
47 | C[C@@H](NC(=O)c1ccc(/C=C/C(c2cc(Cl)c(Cl)c(Cl)c2)C(F)(F)F)cc1C(F)(F)F)C(=O)NCC(F)(F)F (mixture of isomers) [Compound F20] | 50 to 100%
48 | CC(C)(NC(=O)c1ccc(/C=C/C(c2cc(Cl)c(Cl)c(Cl)c2)C(F)(F)F)cc1Cl)C(=O)NCC(F)(F)F (stereo not shown) [Compound F2] | 50 to 100%
49 | Cc1cc(/C=C/C(c2cc(Cl)c(Cl)c(Cl)c2)C(F)(F)F)ccc1C(=O)NC(C)(C)C(=O)NCC(F)(F)F (stereo not shown) [Compound F3] | 50 to 100%
50 | CC(C)(NC(=O)c1ccc(/C=C/C(c2cc(Cl)c(Cl)c(Cl)c2)C(F)(F)F)cc1C(F)(F)F)C(=O)NCC(F)(F)F (stereo not shown) [Compound F4] | 50 to 100%
51 | C[C@H](NC(=O)c1ccc(/C=C/C(c2cc(Cl)c(Cl)c(Cl)c2)C(F)(F)F)cc1Br)C(=O)NCC(F)(F)F (stereo partly shown) [Compound F5] | 50 to 100%
52 | CC[C@H](NC(=O)c1ccc(/C=C/C(c2cc(Cl)c(Cl)c(Cl)c2)C(F)(F)F)cc1Cl)C(=O)NCC(F)(F)F (stereo partly shown) [Compound F23] | 50 to 100%
